Data as given in PMC10487708, “Chlorin E6-Curcumin-Mediated Photodynamic Therapy Promotes an Anti-Photoaging Effect in UVB-Irradiated Fibroblasts” (International Journal of Molecular Sciences, 2023).
Where “and” joins values, the source holds several entries; their conditions need not be identical. Equal entries are not always repeated. Where two headings read alike, the source gives them in different places.

Columns and labels:
[1] = ABTS radical scavenging activity; assay type: biochemical
Protocol: […] in 2.5 mM potassium persulfate for more than 16 h to develop 7 mM 2,2′-azinobis-(3-ethylbenzothiazoline-6-sulfonic acid diammonium salt) (ABTS), and ethanol was diluted to obtain an absorbance of 0.3 at 620 nm. Each composite sample was diluted by concentration, and 100 μL of the sample was put into each well along with 50 μL each of ABTS reagent and solvent; reacted at room temperature for 10 min, and absorbance was measured at 620 nm. ABTS activity inhibition (%) = 100 − [test group-blank]/(control group-blank) × 100]

[2] = ORAC (oxygen radical absorbance capacity) assay; assay type: biochemical; conditions: Trolox equivalent
Protocol: The ORAC assay is based on the scavenging of peroxyl radicals generated by 2,2′-azobis(2-methylpropioamidine) dihydrochloride (AAPH), which prevents the degradation of the fluorescein probe. The ORAC values were calculated as the area under the curve (AUC) and expressed as µM of Trolox equivalent (TE).

Hs68 cells = assay: MTT cell viability of Hs68 cells with or without LED light; assay type: cell-based, human; conditions: for IC50: Homo sapiens, light or radiation study, Hs68 cells
Protocol: Data were represented as mean ± SD from at least three independent experiments and analyzed by one-way ANOVA with Tukey’s post hoc test, * p < 0.01, compared with vehicle-treated control.
Hs68 and BALB/c 3T3 cell viability was measured using a 3-[4,5-dimethylthylthiazol-2-yl]-2,5 diphenyl tetrazolium bromide (MTT) assay. The cells were cultured in 24-well plates at a density of 3 × 10^4 cells per well or BALB/c 3T3 cells at a density of 1 × 10^4 cells per well. […] The Hs68 cells were then exposed to LED light (660 nm; 89 W/m^2; 20 J/cm^2) for 37 min 27 s and incubated for 3 h. […] The cells were washed and treated with MTT, after which the plates were incubated at 37 °C in the dark for 2 h. After the formation of formazan, 100 µL of DMSO was added, and the absorbance was measured at 570 nm using a microtiter plate reader (Thermo-scientific, Skanlt software 5.0, Waltham, MA, USA)

[3] = dark, read-out: Dark Condition (EC50, μM) ABTS radical scavenging

Row | EC50 [1, 3] | EC50 ([1]; LED light, read-out: LED Condition (EC50, μM) ABTS radical scavenging) | SMILES | ORAC Dark Condition (TE, μM) ([2]; 1 μM compound) | ORAC Dark Condition (TE, μM) ([2]; 10 μM compound) | IC50 (Hs68 cells; LED 660 nm 20 J/cm^2, MTT, read-out: Phototoxicity (IC50)) [µM] | IC50 (Hs68 cells; without LED irradiation, MTT, read-out: Dark Toxicity (IC50)) [µM] | cytotoxicity for Hs68 cells (Hs68 cells; dark, up to 1000 nM) | ORAC LED Condition (TE, μM) ([2]; LED 20 J/cm^2, 1 μM compound) [µM] | ORAC LED Condition (TE, μM) ([2]; LED 20 J/cm^2, 10 μM compound) [µM]
1 | 60.3 ± 9.51 µM | – | NCC(=O)CCC(=O)O [5-ALA, 5-Aminolevulinic acid, reference compound] | undetectable | undetectable | – | – | – | – | –
2 | ~13.6 µM and 13.6 µM | ~19.8 µM and 19.8 µM | C=Cc1c(C)c2cc3nc(c(CC(=O)O)c4[nH]c(cc5nc(cc1[nH]2)C(C)=C5CC)c(C)c4C(=O)O)[C@@H](CCC(=O)O)[C@@H]3C [Ce6, Chlorin e6] | 18.5 µM | 47.72 µM | 0.615 | ≥ 1 | almost no cytotoxicity | 22.11 | 53.85
